The source of these data is patent US8822515B2, “Heterocyclic benzoxazole compositions as inhibitors of hepatitis C virus” (University of Maryland, Baltimore County, priority 2009, dated 2014).

Entries after “also recorded” stand apart in the source; their conditions may differ. Where two headings read alike, the source gives them in different places.

For data set [1], the target named is T1, HCV NTPase/helicase (Hepatitis C virus genotype 1a, UniProt P27958). The experiment in a line: NTPase/Helicase assay, HCV helicase, DNA substrate. The data set is classed as biochemical. Particulars: for IC50 / inhibition of NTPase/helicase of HCV (in words): DNA substrate. As for the experimental part: Inhibitory activity of HCV was measured using a DNA substrate.
NTPase/Helicase activity determined by a previously described method. Helicase activity was determined as a function of increasing concentrations of the compounds in the presence of ATP adjusted to 105 μM, 235 μM, for HCV, JEV, and DENV NTPase/Helicase, respectively and […] of DNA substrate (concentration of nucleotide base). The substrate and released strand were separated in TBE polyacrylamide gel and visualized by exposition of dried gel onto X-ray film for 20 h. The part of the gels corresponding to the released strand were excised, and the ^32P radioactivity was quantified.

For data set [2], the target named is T1, HCV NTPase/helicase. The data set is described as follows: NTPase/Helicase assay, HCV helicase, RNA substrate. Format: biochemical. The protocol: NTPase/Helicase activity determined by a previously described method. […] The substrate and released strand were separated in TBE polyacrylamide gel and visualized by exposition of dried gel onto X-ray film for 20 h. The part of the gels corresponding to the released strand were excised, and the ^32P radioactivity was quantified.

Data set [3] concerns the target HCV ATPase (Hepatitis C virus genotype 1a, UniProt P27958). The experiment in a line: ATPase analysis of HCV NTPase/helicase. Format: biochemical.
Data set [4] deals with HCV replicon in Huh7 ET (luc-ubi-neo/ET) cell line. The experiment in a line: HCV replicon assay (luciferase based), antiviral activity. Further details: SI50: unit not given here. Conditions: for EC50: Hepatitis C virus, Huh7 ET; for SI50: selectivity index, luciferase based replicon assay; for activity against HCV in replicon assay (in words): whole cells. The data set is classed as cell-based, Hepatitis C Virus. From the text: (§1) To determine if the compounds are active in whole cells, they were screened using an HCV replicon assay. […] Compound 2b also has similar selectivity towards HCV as human interferon alpha-2b (rIFNa-2b), the positive control.
In the replicon assays a Huh7 ET (luc-ubi-neo/ET) cell line is used. This particular construct contain the 5′NTR (IRES) of HCV, producing a firefly luciferase (luc), ubiquitin (ubiq) and neomycin phosphotranferase (neo) fusion protein. This modification makes the cell line more robust and provides the additional stability needed for antiviral screening. […]
In general terms: In antiviral work, replicon cells carry a viral genome segment that copies itself.

Data set [5] has as its system Huh7 ET (luc-ubi-neo/ET) cell line. The experiment in a line: HCV replicon assay (luciferase based), cytotoxicity. Conditions: cytotoxicity in luciferase based replicon assay, high test conc 20 μM (rIFNa-2b 2). The data set is classed as cell-based.
Excerpt: as §1
In the replicon assays a Huh7 ET (luc-ubi-neo/ET) cell line is used. This particular construct contain the 5′NTR (IRES) of HCV, producing a firefly luciferase (luc), ubiquitin (ubiq) and neomycin phosphotranferase (neo) fusion protein. This modification makes the cell line more robust and provides the additional stability needed for antiviral screening. The effects of the drug were examined in triplicate at a single high-test concentration of 20 μM on HCV RNA-derived LUC activity and cytotoxicity.

The test system of data set [6] is HCV. The data set is described as follows: RNA based confirmatory assay, antiviral activity. The data set is classed as cell-based, Hepatitis C Virus. Further details: SI50: unit not given here. Conditions: for EC50: Hepatitis C virus; for SI50: selectivity index, RNA based confirmatory assay.
Data set [7] in a line: RNA based confirmatory assay, cytotoxicity. Format: cell-based. Particulars: cytotoxicity in RNA based confirmatory assay; high test conc 20 μM (rIFNa-2b 2).
The test system of data set [8] is integrase. The data set is described as follows: Integrase test. The data set is classed as biochemical.
The mark [9] stands for this setting: read-out: HCV Helicase (IC50) DNA (converted).
The mark [10] stands for this setting: read-out: HCV Helicase (IC50) RNA.
Where [11] appears, read: HCV Helicase (IC50) DNA, in brackets, molar value in brackets.
The mark [12] stands for this setting: HCV Helicase (IC50) RNA, in brackets, molar value in brackets.

HCV ATPase, sequence (P27958 1027-1657): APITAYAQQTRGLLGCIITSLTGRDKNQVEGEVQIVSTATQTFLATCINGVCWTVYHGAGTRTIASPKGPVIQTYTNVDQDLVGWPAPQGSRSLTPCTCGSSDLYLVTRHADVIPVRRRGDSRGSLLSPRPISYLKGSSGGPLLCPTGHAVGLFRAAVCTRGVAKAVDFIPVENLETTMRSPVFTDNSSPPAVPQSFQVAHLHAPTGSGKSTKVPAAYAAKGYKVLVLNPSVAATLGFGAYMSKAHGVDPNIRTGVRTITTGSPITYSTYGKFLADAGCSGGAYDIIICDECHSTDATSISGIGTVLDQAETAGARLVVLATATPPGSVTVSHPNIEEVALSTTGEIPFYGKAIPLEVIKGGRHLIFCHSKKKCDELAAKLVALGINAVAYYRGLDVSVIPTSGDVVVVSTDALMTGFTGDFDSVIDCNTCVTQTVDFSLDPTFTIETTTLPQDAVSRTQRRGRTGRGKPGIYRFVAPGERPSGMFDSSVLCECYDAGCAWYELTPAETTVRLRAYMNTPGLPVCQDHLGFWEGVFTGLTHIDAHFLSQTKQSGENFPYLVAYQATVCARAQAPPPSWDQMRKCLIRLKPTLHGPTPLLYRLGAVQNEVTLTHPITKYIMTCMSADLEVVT
T1 sequence (P27958 1027-1657): as above

As for `CNC(=O)c1cccc2oc(-c3ccccc3O)nc12` [Compound 10], in data set [1], the “activity in HCV NTPase/helicase assay (in words)” value is “inactive; also recorded: did not show any activity”. The IC50 – broadly, the point on the concentration scale where inhibition reaches its midpoint – in data set [1] (setting [9]) is > 1860 µM; in data set [2] (setting [10]), > 1860 µM; in data set [3] (read-out: ATPase (IC50)), > 1860 µM; in data set [5] it was 6.32 µM. Also, the EC50 (usually the concentration needed to bring the measured effect to its halfway point) in data set [4] is 1.41 µM. In addition, in [4], the SI50 was found to be 4.5. For the same compound, the “activity against HCV in replicon assay (in words)” value (shortened to “activity against HCV”) in data set [4] is on record as “still active against HCV”.

`COC(=O)c1cccc2oc(-c3ccc4ccccc4c3O)nc12` [Compound 6, 2-(1-Hydroxy-naphthalen-2-yl)benzoxazole-4-carboxylic Acid Methyl Ester]: in data set [1], the “inhibition of NTPase/helicase of HCV (in words)” value is given as “inhibit”. Further, the IC50 was 539 µM in data set [1] (HCV Helicase (IC50) DNA); 539 µM in data set [1] (setting [11]); 592 µM in data set [2] (HCV Helicase (IC50) RNA); 591 µM in [2] (setting [12]); > 1570 µM in data set [3]; 1.61 µM in [5]. The same compound showed a half-maximal inhibitory concentration (IC50) in [7] of 1.68 µM. Besides, the “inhibition of HCV helicase with RNA substrate (in words)” value (from here on “inhibition of HCV helicase”) in data set [2] is “inhibitory”. The figures for the EC50 in data set [4] and in data set [6] were 0.21 µM and 1.32 µM, respectively. For the same compound, the SI50 in [4] is listed as 7.67; in [6], >1.27. Also, the activity against integrase entry in data set [8] was “inactive”.

As for `COC(=O)c1cccc2oc(-c3ccc4c(OCc5ccccc5)cccc4c3O)nc12` [Compound 2a, 2-(5-Benzyloxy-1-hydroxy-naphthalene-2-yl)-benzoxazole-4-carboxylic Acid Methyl Ester], the melting point (in general, the temperature of the solid-liquid transition) was in the range of 183.5 to 185 °C. For the same compound, the “inhibition of NTPase/helicase of HCV (in words)” value in data set [1] is reported as “inhibit”. Half-maximal inhibition in data set [1] (HCV Helicase (IC50) DNA) (IC50) was put at 3.76 µM. Further, in data set [1] (setting [11]), the IC50 is 3.8 µM. The “inhibition of HCV helicase” value in data set [2] is listed as “inhibitory”. Also, inhibition in [2] (HCV Helicase (IC50) RNA) was half-maximal at 20.4 µM (IC50). In [2] (setting [12]), this compound came in with an IC50 of 20 µM. Further, in data set [3], the IC50 is > 1180 µM. Further, in data set [4], the EC50 came out at 1.13 µM and the SI50 is >17.7. Also, the IC50 in [5] was > 20 µM. The activity against integrase result in [8] is “inactive”.

On to `O=C(O)c1cccc2oc(-c3ccccc3O)nc12` [Compound 9], for which the “activity in HCV NTPase/helicase assay (in words)” value in [1] was “inactive; also recorded: did not show any activity”. The IC50 was > 1960 µM in [1] (setting [9]), > 1960 µM in data set [2] (setting [10]), > 1960 µM in data set [3] (read-out: ATPase (IC50)) and 3.51 µM in data set [5]. The same compound displayed an EC50 in data set [4] of 0.21 µM. In addition, in data set [4], the SI50 came to 16.7. Besides, the “activity against HCV” value in [4] is given as “still active against HCV”.

On to `COC(=O)c1cccc2oc(-c3cccc4oc(-c5ccccc5O)nc34)nc12` [Compound 1, UK-1], for which the “activity in HCV NTPase/helicase assay (in words)” value in [1] is “inactive; also recorded: did not show any activity”. In addition, the “inhibition of NTPase/helicase of HCV (in words)” value in [1] is “inhibit”. Besides, the IC50 in [1] (setting [9]) is 378 µM; in [2] (setting [10]), > 1290 µM; in data set [3] (read-out: ATPase (IC50)), > 1290 µM; in [5] it was 11.6 µM; in data set [7] it was > 20 µM. The values for the EC50 in data set [4] and in [6] were 0.21 µM and 0.72 µM, respectively. The “activity against HCV” value in data set [4] is given as “still active against HCV”.

Turning to `COC(=O)c1cccc2oc(-c3ccc4ccc(OCc5ccccc5)cc4c3O)nc12` [Compound 2b, 2-(7-benzyloxy-1-hydroxy-napthalen-2-yl)-benzoxazole-4 Carboxylic Acid Methyl Ester], the “inhibition of NTPase/helicase of HCV (in words)” value in [1] is recorded as “inhibit”. The IC50 in data set [1] (HCV Helicase (IC50) DNA) is 2.59 µM; in data set [1] (setting [11]), 2.6 µM; in data set [2] (HCV Helicase (IC50) RNA), 19.7 µM; in data set [2] (setting [12]), 20 µM; in [3], > 1180 µM; in data set [5] it was > 20 µM. The “inhibition of HCV helicase” value in data set [2] was “inhibitory”. In [4], this compound showed an EC50 of 0.47 µM. Moreover, in data set [4], the SI50 is >42.6. Further, in [8], the activity against integrase entry is “inactive”.

For `COC(=O)c1cccc2oc(-c3ccccc3O)nc12` [Compound 8], in [1], the “activity in HCV NTPase/helicase assay (in words)” value was “inactive; also recorded: did not show any activity”. The half-inhibitory concentration (IC50) was > 1860 µM in data set [1] (setting [9]); > 1860 µM in data set [2] (setting [10]); > 1860 µM in [3] (read-out: ATPase (IC50)); 5.2 µM in data set [5]; 5.18 µM in data set [7]. Besides, the EC50 in data set [4] stood at 0.32 µM; in data set [6] it was 0.58 µM. For the same compound, the SI50 is given as 16.2 in data set [4] and >8.93 in data set [6]. Further, in data set [4], the “activity against HCV” value was “still active against HCV”.
